The results in this text go back to ChEMBL document CHEMBL3507680, “University of Dundee, Gates Library screen for HepG2 cell viability”.

The nature of this series: Human HepG2 cell viability assay in 384 well format. It is filed as toxicity, cell-based. Also noted: dose 125 nL, time 70.5 hour; concentration not given beside the values. The note with it: HepG2 cells, read-out: Inhibition.
Take `O=S(=O)(NCCn1ccc(-c2ccccn2)n1)C1CCCCC1`: the cytotoxicity at 70.5 h was determined as 23.9%.

For the compound `Cn1nc(CNC(=O)c2ccc3c(c2)OCO3)c2c1CCOC2`, the cytotoxicity at 70.5 h came out at 5.45%.

Consider `Cn1nc(CNC(=O)c2ccc3nsnc3c2)c2c1CCOC2`, for which the cytotoxicity at 70.5 h is -4.6%.

As for `COc1cc(OC)cc(C(=O)NCc2nn(C)c3c2COCC3)c1`, the cytotoxicity at 70.5 h was 0.999%.

Take `O=C(CC1CCC2(CC1)CCN(Cc1nccs1)CC2)N1CC=CC1`: the cytotoxicity at 70.5 h is -3.04%.

Consider `Cc1ccnc(OC[C@]23COC[C@H]2CN(C(=O)C2=CCCCC2)C3)n1`, for which the cytotoxicity at 70.5 h is -11.5%.

For `Cc1ccnc(OC[C@]23COC[C@H]2CN(C(=O)c2ncccn2)C3)n1`, the cytotoxicity at 70.5 h was 21.2%.

`Cc1ccnc(OC[C@]23COC[C@H]2CN(C(=O)c2cnccn2)C3)n1`: the cytotoxicity at 70.5 h turned out to be 14.9%.

For the compound `COCc1ncn2c1CN(C(=O)Nc1cccc(OC)c1)CC2`, the cytotoxicity at 70.5 h stood at 19.8%.

Turning to `CC(=O)NCC(=O)N1CCC2(COCc3c(C)nc(N(C)C)nc32)C1` (configuration not stated), the cytotoxicity at 70.5 h is -6.64%.

As for `Cc1nc(N(C)C)nc2c1COCC21CCN(C(=O)NCC(C)C)C1` (configuration not stated), the cytotoxicity at 70.5 h is -7.67%.

Consider `CN1C(Cn2cccn2)C[C@@H]2CN(Cc3cnn(C)c3)CC[C@@H]21` (some centres not stated), for which the cytotoxicity at 70.5 h is -11.7%.

On to `CCOCc1ncn2c1CN(C(=O)Nc1ccccc1)CC2`, for which the cytotoxicity at 70.5 h is -15.7%.

Take `CCS(=O)(=O)N1C[C@H]2CN(Cc3cccc(F)c3)C(=O)[C@H]2C1`: the cytotoxicity at 70.5 h is -3.13%.

For `CN(C)c1ncc(-c2cc(C(=O)N3CCCC3)n(CC3CC3)c2)cn1`, the cytotoxicity at 70.5 h was -11%.

As for `CC(C)COCC1CN(Cc2ccoc2)Cc2ncn(C)c21` (configuration not stated), the cytotoxicity at 70.5 h stood at 14%.

`CC(C)N(C)Cc1cnc2n1CCN(Cc1cccc(C#N)c1)C2`: the cytotoxicity at 70.5 h is -13.7%.

As for `Cc1ccc(N2CC[C@H]3OCC[C@@]3(C(=O)N3CCCC3)C2)nn1`, the cytotoxicity at 70.5 h is -9.8%.

`Cc1ccc(N2CC[C@H]3OCC[C@@]3(C(=O)NCC3CC3)C2)nn1`: the cytotoxicity at 70.5 h was -7.61%.

As for `CCO[C@@H]1CCN(c2ccc(C)nn2)[C@@H]1Cc1cnn(C)c1`, the cytotoxicity at 70.5 h was -10.9%.

For `O=C(Cc1ccccn1)N1C[C@@H](Oc2cccnc2)[C@H]2OCCC[C@H]21`, the cytotoxicity at 70.5 h amounted to 28.2%.

Regarding `Cn1nccc1-c1ccc2nc(C3CCNCC3)nn2c1`, the cytotoxicity at 70.5 h stood at 10.5%.

Regarding `O=C(Nc1cccc(Cl)c1)c1nn(C2CCS(=O)(=O)C2)c2c1CCCC2` (configuration not stated), the cytotoxicity at 70.5 h was determined as 13.9%.

As to `COc1cccc(C2CC(=O)Nc3nc(N)sc32)c1OC` (configuration not stated), the cytotoxicity at 70.5 h came to 12.4%.

With `O=C(c1cc(-n2cccc2)ccc1Cl)N1CCC2(CC1)OCCO2`, the cytotoxicity at 70.5 h was determined as 2.22%.

Regarding `Cn1ncc2c1NC(=O)CC2c1ccccc1Cl` (configuration not stated), the cytotoxicity at 70.5 h is -5.68%.

`CN(C(=O)Cn1nc(-c2ccc(F)cc2)ccc1=O)C1CCS(=O)(=O)C1` (configuration not stated): the cytotoxicity at 70.5 h was -0.171%.

In the case of `CCOC(=O)N1CCN(C(=O)CCn2ccc3c(OC)cccc32)CC1`, the cytotoxicity at 70.5 h is -9.78%.

On to `CN1CCN(c2nc(O)c3c(-c4ccccn4)ccnc3n2)CC1`, for which the cytotoxicity at 70.5 h was -3.01%.

In the case of `O=C(COc1coc(CN2CCOCC2)cc1=O)c1ccc(Cl)cc1`, the cytotoxicity at 70.5 h was -9.03%.

On to `CC(C)CN1C[C@@H]2CN(C(=O)[C@H]3CCCO3)C[C@@H]2C1=O`, for which the cytotoxicity at 70.5 h is -14.1%.

For `CCCC(=O)N1CCC2(CC1)CC(NC(C)=O)c1ccccc1O2` (configuration not stated), the cytotoxicity at 70.5 h is -13.7%.

Regarding `COCCN1C(=O)CCC12CCN(C(=O)NC(C)C)CC2`, the cytotoxicity at 70.5 h is -25.3%.

Consider `Cc1ccc(C(=O)N2CCCC3(CCCC(=O)N3C)C2)cc1F` (configuration not stated), for which the cytotoxicity at 70.5 h is -4.57%.

As for `CC(=O)N1CCN(c2ccc3ccc(C(=O)NC4CCCC4)cn23)CC1`, the cytotoxicity at 70.5 h is -14.6%.

With `O=C(c1ccco1)N1CCC2(CCC(=O)N2Cc2cccc(F)c2)CC1`, the cytotoxicity at 70.5 h is -15.7%.

For `COCCN1CC[C@]2(CN(C(=O)c3cccs3)C[C@H]2C)C1=O`, the cytotoxicity at 70.5 h was -10.6%.

Consider `Cc1occc1C(=O)N1CCC2(CCC(C(=O)NCC3CC3)O2)CC1` (configuration not stated), for which the cytotoxicity at 70.5 h is -12.7%.

With `COCCO[C@H]1CCN(C(=O)c2cc(C)on2)[C@H]1Cc1ccccc1`, the cytotoxicity at 70.5 h is 0.559%.

For `CC[C@H]1NCCC[C@]12CCC(=O)N2Cc1ccncc1`, the cytotoxicity at 70.5 h is -0.708%.

Take `O=C(c1ccnnc1)N1CCC2(CC1)CC(N1CCOCC1)C2`: the cytotoxicity at 70.5 h stood at 33.7%.

On to `O=C1CC2(CCCNC2)C(=O)N1Cc1ccccc1` (configuration not stated), for which the cytotoxicity at 70.5 h was found to be 18.9%.

Consider `CN1CCc2c(C#N)c(NCCCN3CCOCC3)n3cnnc3c2C1`, for which the cytotoxicity at 70.5 h was -14.3%.

For the compound `NC[C@H]1[C@H]2CN(Cc3ccccc3)C[C@@H]12`, the cytotoxicity at 70.5 h came to 0.818%.

On to `Cc1ccc(CNC2CCc3[nH]c(=O)ccc3C2)cc1C` (configuration not stated), for which the cytotoxicity at 70.5 h came out at 2.24%.

With `CNC(=O)CN1CC[C@H]2CN(C(=O)c3ccccc3F)C[C@H]2C1`, the cytotoxicity at 70.5 h was -2.12%.

Turning to `COCCN1CCC2(CC1)CC(c1cccnc1)CO2` (configuration not stated), the cytotoxicity at 70.5 h was -4.14%.

As to `COCCn1cc2c(n1)C(CNCc1ccsc1)OCC2` (configuration not stated), the cytotoxicity at 70.5 h was -14.8%.

For `COCC1CC2(CCN(C(=O)c3ccccc3C)CC2)CN1C(C)C` (configuration not stated), the cytotoxicity at 70.5 h was determined as 19.7%.

As to `Cc1ccc(CN2CCC3(C2)C(=O)N(CC2CC2)c2ccccc23)s1` (configuration not stated), the cytotoxicity at 70.5 h is -8.57%.

In the case of `CC(C)CN1C(=O)C2(CCN(Cc3cccs3)C2)c2ccccc21` (configuration not stated), the cytotoxicity at 70.5 h is -16.4%.

Regarding `CC(C)CN1C(=O)C2(CCN(Cc3ccoc3)C2)c2ccccc21` (configuration not stated), the cytotoxicity at 70.5 h was -14.2%.

With `CC(C)N(C)Cc1cnc2n1CCN(S(=O)(=O)c1ccccc1)C2`, the cytotoxicity at 70.5 h came to 15.9%.

As for `COCC1CC2(CCN(C(=O)c3ccco3)CC2)CN1C(C)C` (configuration not stated), the cytotoxicity at 70.5 h is -13%.

Consider `CCS(=O)(=O)N1CCO[C@H]2[C@H](Oc3ncccc3F)CC[C@@H]21`, for which the cytotoxicity at 70.5 h is -11.9%.

Consider `COCCN1C(=O)[C@]2(CC[C@@H]3CN(Cc4ccccc4F)C[C@@H]32)N=C1C`, for which the cytotoxicity at 70.5 h is -9.72%.

As for `CC1=N[C@@]2(CC[C@@H]3CN(CC4CC4)C[C@@H]32)C(=O)N1CC1CC1`, the cytotoxicity at 70.5 h was -13.6%.

For the compound `CC1=N[C@@]2(CC[C@@H]3CN(Cc4cccc(Cl)c4)C[C@@H]32)C(=O)N1CC1CC1`, the cytotoxicity at 70.5 h was -14.9%.

For `CC(=O)N1CC(=O)N(c2ccccc2)CC12CCN(Cc1ccoc1)C2` (configuration not stated), the cytotoxicity at 70.5 h was -14.4%.

For the compound `CC(C)CN1CC[C@@H]2[C@H](CC1)N(S(C)(=O)=O)CCS2(=O)=O`, the cytotoxicity at 70.5 h is -11.1%.

For `CC(=O)N1CC(=O)N(c2cnn(C)c2)CC12CCN(Cc1cccs1)C2` (configuration not stated), the cytotoxicity at 70.5 h was -9.86%.

For `O=C(N[C@H]1CN(Cc2ccsc2)[C@@H]2CCCO[C@H]12)C1CC1`, the cytotoxicity at 70.5 h was -11.3%.

Consider `COCC1Cn2nnc(-c3cnn(C)c3)c2CN1Cc1ccsc1` (configuration not stated), for which the cytotoxicity at 70.5 h is -9.05%.

Regarding `CC1CCN(C(=O)[C@H]2CC[C@@H]3[C@@H](CCN3Cc3nccs3)O2)CC1`, the cytotoxicity at 70.5 h stood at 25.3%.

For the compound `Cc1nc(CN2CC[C@H]3[C@@H]2CCC(=O)N3c2cnn(C)c2)cs1`, the cytotoxicity at 70.5 h amounted to 13.5%.

Turning to `c1cnc(N2Cc3nccn3CC(COc3cccnc3)C2)nc1` (configuration not stated), the cytotoxicity at 70.5 h was -8.37%.

Take `CN1C(=O)C(c2ccccc2)CC12CCN(CCO)CC2` (configuration not stated): the cytotoxicity at 70.5 h was -14.6%.

For `CN(C)C[C@@H]1C[C@@H]2CN(C(=O)c3ccoc3)CC[C@@H]2N1CC1CC1`, the cytotoxicity at 70.5 h is 24%.

As for `O=C1C[C@H]2[C@H](CCN2Cc2ccccn2)N1CC1CC1`, the cytotoxicity at 70.5 h is -15.8%.

With `O=C(c1ccc(F)cc1)N1CCC2(CCCN2CC2CC2)CC1`, the cytotoxicity at 70.5 h was -14%.

As to `CC(C)NC(=O)CC1COC2(CCN(Cc3cccs3)CC2)C1` (configuration not stated), the cytotoxicity at 70.5 h is -20.6%.

Regarding `CO[C@@H]1CCN(C(=O)c2ccccn2)[C@H]1Cc1ccccc1`, the cytotoxicity at 70.5 h was -16.2%.

As for `Cc1cccc(CN2CCc3nnc(CN4CCCC4=O)n3CC2)n1`, the cytotoxicity at 70.5 h was -16.9%.

For the compound `COCCC(=O)N1C[C@H]2CN(Cc3cccc(C)n3)C(=O)[C@H]2C1`, the cytotoxicity at 70.5 h was -11.1%.

For the compound `COc1ccc(CN2CCC3(CC2)CCN(CC(C)C)C3=O)cc1`, the cytotoxicity at 70.5 h is -10.6%.

Regarding `O=C(N1CCCC1)N1CCC2(CCCN(CCOc3ccccc3)C2)C1` (configuration not stated), the cytotoxicity at 70.5 h came to 26.5%.

With `O=C(CC1CCCC1)N1C[C@@H]2CCN(c3cccnc3)C[C@@H]2C1`, the cytotoxicity at 70.5 h is -7.38%.

`CC(C)CC(=O)N1CC[C@@H]2[C@H](CC1)N(Cc1cccnc1)CCS2(=O)=O`: the cytotoxicity at 70.5 h was determined as 3.17%.

For `CC(C)C(=O)N1CC[C@@H]2[C@H](CC1)N(Cc1cccnc1)CCS2(=O)=O`, the cytotoxicity at 70.5 h came out at 2.07%.

As for `O=C(CC1CCC2(CC1)CCN(Cc1cccnc1)CC2)N1CC=CC1`, the cytotoxicity at 70.5 h is -8.62%.

Turning to `Fc1ccc(CN2CCC(F)(F)C3(CCN(c4cnccn4)C3)C2)cc1` (configuration not stated), the cytotoxicity at 70.5 h was -9.88%.

As for `CC(C)N(C)Cc1cnc2n1CCN(C(=O)Cc1ccccn1)C2`, the cytotoxicity at 70.5 h was 13.5%.

On to `Cn1cc(CN2CCC(F)(F)C3(CCN(c4ncccn4)C3)C2)cn1` (configuration not stated), for which the cytotoxicity at 70.5 h was -12.2%.

Consider `CC(C)N(C)Cc1cnc2n1CCN(Cc1cccc(F)c1)C2`, for which the cytotoxicity at 70.5 h was -4.8%.

On to `CNC(=O)CN1CCOCC2(CCCN(Cc3ccsc3)C2)C1` (configuration not stated), for which the cytotoxicity at 70.5 h is -19.5%.

In the case of `CCN1CCn2c(C)cnc2C12CCN(C(=O)N(C)C)CC2`, the cytotoxicity at 70.5 h is -9.01%.

As to `CCN1CCn2c(C)cnc2C12CCN(C(=O)c1cscn1)CC2`, the cytotoxicity at 70.5 h was determined as 4.22%.

With `Cn1cc(N2C(=O)CC[C@@H]3[C@H]2CCN3Cc2cccc(C#N)c2)cn1`, the cytotoxicity at 70.5 h was -13.2%.

`O=C1CC[C@H]2[C@H](CCN2Cc2ccccn2)N1CC1CCOCC1`: the cytotoxicity at 70.5 h is -6.68%.

As for `CN1[C@H](CN2CCCC2)C[C@@H]2CN(C(=O)Cc3cccs3)CC[C@@H]21`, the cytotoxicity at 70.5 h amounted to 27.9%.

In the case of `Cc1nc(CN2CCC3(CCCN(Cc4ccncc4)C3)C2=O)cs1` (configuration not stated), the cytotoxicity at 70.5 h was -11.1%.

Consider `Cc1cccc(CN2CC[C@H]3[C@H]2CCN3Cc2cnn(C)c2)n1`, for which the cytotoxicity at 70.5 h worked out at 30.5%.
